US20070264202A1, “Pharmaceutical Composition Comprising an Isomer of Betamimetic Agent and an Anti-Cholinergic Agent” (CIPLA LIMITED, priority 2004, published 2007)

What was measured:
beta-adrenoreceptor = settings: in-vitro studies, salbutamol enantiomers; cited from earlier work
[1] = cited from earlier work
[2] = Flow, suspension and dispersion characteristics; format: physicochemical; settings: compared with the racemate
[3] = compared with the racemate; cited from earlier work
[4] = system: subjects with stable mild to moderate bronchial asthma; test: Randomized double-blind, single-dose, crossover study of bronchodilator responses via metered dose inhaler; format: in vivo; settings: monitored over 6 hours
Protocol: A study was conducted to compare bronchodilator responses to levosalbutamol sulphate and racemic salbutamol sulphate administered via metered dose inhaler in a randomized double-blind, single-dose, crossover study. In this study single doses of 100 mcg levosalbutamol sulphate and 200 mcg racemic salbutamol sulphate were administered via MDI in subjects with stable mild to moderate bronchial asthma, who were then monitored over a period of 6 hours. […] Thus, it is clear from the study that a reduced dose of levosalbutamol sulphate is required compared to racemic salbutamol sulphate to have the same therapeutic effect.

Compound: CC(C)(C)NC[C@@H](O)c1ccc(O)c(CO)c1 (single isomer, unassigned) [S-isomer]
- affinity for the beta-adrenoreceptor (beta-adrenoreceptor): markedly less affinity

Compound: COc1ccc(C[C@@H](C)NC[C@H](O)c2ccc(O)c(NC=O)c2)cc1 [R,R formoterol]
- activity relative to S,S-isomer or any other available isomer [1]: 1000 times

Compound: CC(C)(C)NC[C@H](O)c1ccc(O)c(CO)c1 [levosalbutamol]
- flow property [2]: more free flowing than the racemate
- suspension and dispersion characteristics [2]: better suspension and dispersion characteristics
- bronchodilatory effects [3]: greater bronchodilatory effects than the racemate

Compound: levosalbutamol sulphate
- bronchodilator response ([4]; single dose 100 mcg via MDI, compared with 200 mcg racemic salbutamol sulphate): equivalent time-dependant bronchodilator responses

Compound: salbutamol sulphate [racemic salbutamol sulphate]
- bronchodilator response ([4]; single dose 200 mcg via MDI, compared with 100 mcg levosalbutamol sulphate): equivalent time-dependant bronchodilator responses
